Laboratory results as given in ChEMBL document CHEMBL3286148, “Aminoazabenzimidazoles, a novel class of orally active antimalarial agents” (J Med Chem, 2014).
Values after ≈ are worked out from the molar mass of the structure shown.

Experiments:
[1] = AUC (0 to 23 hrs) in Plasmodium falciparum 3D70087/N9 infected NODscidIL2Rgamma-null mouse at 50 mg/kg, po by LC-MS/MS analysis; format: ADME, organism-based; design: time < 23 hr, dose 50 mg/kg, route oral; details: plasma
Mus musculus [2] = test: AUC (0 to 23 hrs) in Plasmodium falciparum 3D70087/N9 infected NODscidIL2Rgamma-null mouse at 30 mg/kg, po by LC-MS/MS analysis; details: in vivo
[3] = AUC in Wistar rat at 1 mg/kg, iv; format: ADME, organism-based; design: dose 1 mg/kg, route intravenous; details: plasma
Mus musculus [4] = test: Dose normalized Cmax in Plasmodium falciparum 3D70087/N9 infected NODscidIL2Rgamma-null mouse at 30 mg/kg, po by LC-MS/MS analysis; format: ADME, organism-based; design: dose 30 mg/kg, route oral; details: in vivo
[5] = Aqueous solubility of the compound; format: physicochemical; details: buffer
Plasmodium falciparum [6] = test: Antiplasmodial activity against Plasmodium falciparum 3D70087/N9 infected in po dosed NODscidIL2Rgamma-null mouse assessed as reduction of parasite level in peripheral blood qd for 4 days by flow cytometry analysis; format: functional; details: 96 h
Cytochrome P450 3A4 = Cytochrome P450 3A4 (Homo sapiens, UniProt P08684); test: Inhibition of CYP3A4 (unknown origin); format: ADME
Sequence of Cytochrome P450 3A4 (P08684 whole entry): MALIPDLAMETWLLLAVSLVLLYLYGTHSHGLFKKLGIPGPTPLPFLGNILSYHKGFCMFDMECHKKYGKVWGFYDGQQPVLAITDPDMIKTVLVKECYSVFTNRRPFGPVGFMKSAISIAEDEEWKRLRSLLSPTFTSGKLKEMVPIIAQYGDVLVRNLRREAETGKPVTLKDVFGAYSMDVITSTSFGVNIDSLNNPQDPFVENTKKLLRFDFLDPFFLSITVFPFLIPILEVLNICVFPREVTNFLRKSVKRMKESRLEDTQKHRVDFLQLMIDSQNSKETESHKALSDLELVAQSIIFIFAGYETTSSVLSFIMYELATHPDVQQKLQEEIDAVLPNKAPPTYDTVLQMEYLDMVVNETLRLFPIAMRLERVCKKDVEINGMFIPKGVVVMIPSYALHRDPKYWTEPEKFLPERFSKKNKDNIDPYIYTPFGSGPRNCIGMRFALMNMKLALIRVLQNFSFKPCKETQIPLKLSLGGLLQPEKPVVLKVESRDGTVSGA

[7] = Lipophilicity, log D of the compound; format: physicochemical; details: octanol/water
Mus musculus [8] = test: AUC (0 to 23 hrs) in Plasmodium falciparum 3D70087/N9 infected NODscidIL2Rgamma-null mouse at 50 mg/kg, po by LC-MS/MS analysis; details: in vivo
[9] = Tmax in Plasmodium falciparum 3D70087/N9 infected NODscidIL2Rgamma-null mouse at 10 mg/kg, po by LC-MS/MS analysis; format: ADME, organism-based; design: dose 10 mg/kg, route oral; details: in vivo
[10] = Clearance in rat hepatocytes assessed per 1E6 cells; format: ADME, cell-based, Hepatocyte; details: read-out: CLH
Plasmodium berghei [11] = test: Antiplasmodial activity against Plasmodium berghei ANKA expressing GFP infected in BALB/c mouse assessed as reduction of viable parasites at 50 mg/kg, po qd for 4 days by flow cytometry; format: functional
[12] = AUC (0 to 23 hrs) in Plasmodium falciparum 3D70087/N9 infected NODscidIL2Rgamma-null mouse at 10 mg/kg, po by LC-MS/MS analysis; format: ADME, organism-based; design: time < 23 hr, dose 10 mg/kg, route oral; details: plasma
Mus musculus [13] = test: Dose normalized AUC (0 to 23 hrs) in Plasmodium falciparum 3D70087/N9 infected NODscidIL2Rgamma-null mouse at 3 mg/kg, po by LC-MS/MS analysis; format: ADME, organism-based; design: dose 3 mg/kg, route oral; details: in vivo
[14] = Cmax in Wistar rat at 5 mg/kg, po; format: ADME, organism-based; design: dose 5 mg/kg, route oral; details: in vivo
[15] = target: Voltage-gated inwardly rectifying potassium channel KCNH2 (Homo sapiens, UniProt Q12809); test: Inhibition of human ERG
Sequence of Voltage-gated inwardly rectifying potassium channel KCNH2 (Q12809 whole entry): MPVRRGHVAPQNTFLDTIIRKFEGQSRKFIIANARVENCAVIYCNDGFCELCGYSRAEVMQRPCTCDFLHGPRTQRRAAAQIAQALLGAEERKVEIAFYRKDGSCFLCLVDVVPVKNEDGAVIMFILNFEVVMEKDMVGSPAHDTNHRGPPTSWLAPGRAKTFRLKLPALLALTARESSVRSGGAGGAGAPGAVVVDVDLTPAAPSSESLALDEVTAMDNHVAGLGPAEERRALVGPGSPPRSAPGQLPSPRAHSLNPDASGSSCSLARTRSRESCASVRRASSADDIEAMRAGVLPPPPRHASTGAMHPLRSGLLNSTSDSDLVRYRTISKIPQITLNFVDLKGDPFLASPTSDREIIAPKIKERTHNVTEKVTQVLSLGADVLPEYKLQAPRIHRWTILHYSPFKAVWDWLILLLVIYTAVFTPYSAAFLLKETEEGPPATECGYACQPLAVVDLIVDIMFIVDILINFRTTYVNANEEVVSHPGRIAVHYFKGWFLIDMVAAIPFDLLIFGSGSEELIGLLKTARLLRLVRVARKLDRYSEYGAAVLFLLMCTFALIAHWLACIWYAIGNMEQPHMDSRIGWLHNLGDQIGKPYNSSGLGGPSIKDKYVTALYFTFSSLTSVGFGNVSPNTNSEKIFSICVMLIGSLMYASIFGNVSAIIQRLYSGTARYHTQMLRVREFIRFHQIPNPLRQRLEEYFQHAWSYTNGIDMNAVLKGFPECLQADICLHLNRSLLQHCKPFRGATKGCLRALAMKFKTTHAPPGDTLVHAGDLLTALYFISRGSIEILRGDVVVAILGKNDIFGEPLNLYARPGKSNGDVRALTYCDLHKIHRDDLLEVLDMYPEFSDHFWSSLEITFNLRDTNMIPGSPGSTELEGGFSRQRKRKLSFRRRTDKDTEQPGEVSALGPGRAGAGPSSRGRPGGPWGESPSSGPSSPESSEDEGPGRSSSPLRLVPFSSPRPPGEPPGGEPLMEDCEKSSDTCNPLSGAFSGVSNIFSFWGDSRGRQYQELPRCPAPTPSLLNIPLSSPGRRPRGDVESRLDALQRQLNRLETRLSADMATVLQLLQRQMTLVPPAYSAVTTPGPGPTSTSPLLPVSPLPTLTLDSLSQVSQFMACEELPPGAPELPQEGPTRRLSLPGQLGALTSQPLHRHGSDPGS

[16] = Cmax in Plasmodium falciparum 3D70087/N9 infected NODscidIL2Rgamma-null mouse at 10 mg/kg, po by LC-MS/MS analysis; format: ADME, organism-based; design: dose 10 mg/kg, route oral; details: in vivo
[17] = Half life in Wistar rat at 5 mg/kg, po; format: ADME, organism-based; design: dose 5 mg/kg, route oral; details: in vivo
[18] = Fraction unbound in human plasma; format: ADME, cell-free
[19] = Tmax in Plasmodium falciparum 3D70087/N9 infected NODscidIL2Rgamma-null mouse at 50 mg/kg, po by LC-MS/MS analysis; format: ADME, organism-based; design: dose 50 mg/kg, route oral; details: in vivo
Cytochrome P450 2C19 = Cytochrome P450 2C19 (Homo sapiens, UniProt P33261); test: Inhibition of CYP2C19 (unknown origin); format: ADME
Sequence of Cytochrome P450 2C19 (P33261 whole entry): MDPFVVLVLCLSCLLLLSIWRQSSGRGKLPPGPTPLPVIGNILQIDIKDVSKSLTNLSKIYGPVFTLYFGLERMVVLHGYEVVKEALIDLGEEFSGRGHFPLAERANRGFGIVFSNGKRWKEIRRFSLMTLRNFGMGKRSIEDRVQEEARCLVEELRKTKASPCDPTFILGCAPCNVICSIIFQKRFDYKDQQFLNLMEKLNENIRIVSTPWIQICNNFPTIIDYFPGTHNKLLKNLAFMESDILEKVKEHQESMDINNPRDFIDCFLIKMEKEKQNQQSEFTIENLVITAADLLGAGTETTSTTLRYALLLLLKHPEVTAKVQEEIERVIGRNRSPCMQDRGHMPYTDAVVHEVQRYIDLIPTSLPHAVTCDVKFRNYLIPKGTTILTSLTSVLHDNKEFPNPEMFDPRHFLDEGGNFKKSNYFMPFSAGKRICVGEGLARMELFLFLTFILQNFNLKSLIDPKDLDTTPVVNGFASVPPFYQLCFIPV

[20] = AUC (0 to 23 hrs) in Plasmodium falciparum 3D70087/N9 infected NODscidIL2Rgamma-null mouse at 30 mg/kg, po by LC-MS/MS analysis; format: ADME, organism-based; design: time < 23 hr, dose 30 mg/kg, route oral; details: plasma
Mus musculus [21] = test: Dose normalized Cmax in Plasmodium falciparum 3D70087/N9 infected NODscidIL2Rgamma-null mouse at 10 mg/kg, po by LC-MS/MS analysis; format: ADME, organism-based; design: dose 10 mg/kg, route oral; details: in vivo
[22] = AUC (0 to 23 hrs) in Plasmodium falciparum 3D70087/N9 infected NODscidIL2Rgamma-null mouse at 3 mg/kg, po by LC-MS/MS analysis; format: ADME, organism-based; design: time < 23 hr, dose 3 mg/kg, route oral; details: plasma
[23] = Clearance in Wistar rat at 1 mg/kg, iv; format: ADME, organism-based; design: dose 1 mg/kg, route intravenous; details: in vivo
Mus musculus [24] = test: AUC at ED90 in po dosed Plasmodium falciparum 3D70087/N9 infected NODscidIL2Rgamma-null mouse after 7 days; format: ADME, organism-based, Plasma; details: in vivo, 168 h
Mus musculus [25] = test: AUC (0 to 23 hrs) in Plasmodium falciparum 3D70087/N9 infected NODscidIL2Rgamma-null mouse at 10 mg/kg, po by LC-MS/MS analysis; details: in vivo
[26] = Tmax in Plasmodium falciparum 3D70087/N9 infected NODscidIL2Rgamma-null mouse at 30 mg/kg, po by LC-MS/MS analysis; format: ADME, organism-based; design: dose 30 mg/kg, route oral; details: in vivo
Plasmodium falciparum [27] = test: microbe, parasite or virus in culture; details: K1, 72 h
[28] = Oral bioavailability in Wistar rat at 5 mg/kg; format: ADME, organism-based; details: in vivo
Mus musculus [29] = test: Dose normalized Cmax in Plasmodium falciparum 3D70087/N9 infected NODscidIL2Rgamma-null mouse at 50 mg/kg, po by LC-MS/MS analysis; format: ADME, organism-based; design: dose 50 mg/kg, route oral; details: in vivo
[30] = Clearance in human liver microsomes; format: ADME; details: read-out: CLH
[31] = Cmax in Plasmodium falciparum 3D70087/N9 infected NODscidIL2Rgamma-null mouse at 3 mg/kg, po by LC-MS/MS analysis; format: ADME, organism-based; design: dose 3 mg/kg, route oral; details: in vivo
Cytochrome P450 2C9 = Cytochrome P450 2C9 (Homo sapiens, UniProt P11712); test: Inhibition of CYP2C9 (unknown origin); format: ADME
Sequence of Cytochrome P450 2C9 (P11712 whole entry): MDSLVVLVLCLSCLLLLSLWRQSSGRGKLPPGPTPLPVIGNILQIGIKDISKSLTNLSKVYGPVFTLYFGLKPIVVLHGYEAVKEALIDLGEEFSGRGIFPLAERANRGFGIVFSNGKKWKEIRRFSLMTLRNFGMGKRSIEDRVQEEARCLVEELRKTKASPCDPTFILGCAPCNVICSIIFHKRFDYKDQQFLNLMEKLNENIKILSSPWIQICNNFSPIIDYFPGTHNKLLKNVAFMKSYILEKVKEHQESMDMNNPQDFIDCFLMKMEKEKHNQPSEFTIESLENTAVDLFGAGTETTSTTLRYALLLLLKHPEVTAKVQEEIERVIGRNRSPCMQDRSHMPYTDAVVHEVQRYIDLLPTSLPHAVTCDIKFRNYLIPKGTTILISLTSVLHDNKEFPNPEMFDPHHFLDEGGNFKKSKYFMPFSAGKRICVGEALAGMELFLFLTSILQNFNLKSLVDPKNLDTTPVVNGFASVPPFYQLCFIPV

[32] = Volume of distribution at steady state in Wistar rat at 1 mg/kg, iv; format: ADME, organism-based; design: dose 1 mg/kg, route intravenous; details: in vivo, read-out: Vdss
[33] = Half life in Wistar rat at 1 mg/kg, iv; format: ADME, organism-based; design: dose 1 mg/kg, route intravenous; details: in vivo
Plasmodium berghei [34] = test: Antiplasmodial activity against Plasmodium berghei ANKA expressing GFP infected in BALB/c mouse assessed as host survival days at 50 mg/kg, po qd for 4 days; format: functional
Plasmodium falciparum [35] = test: microbe, parasite or virus in culture; details: NF54, 72 h
[36] = Tmax in Plasmodium falciparum 3D70087/N9 infected NODscidIL2Rgamma-null mouse at 3 mg/kg, po by LC-MS/MS analysis; format: ADME, organism-based; design: dose 3 mg/kg, route oral; details: in vivo
Cytochrome P450 2D6 = Cytochrome P450 2D6 (Homo sapiens, UniProt P10635); test: Inhibition of CYP2D6 (unknown origin); format: ADME
Sequence of Cytochrome P450 2D6 (P10635 whole entry): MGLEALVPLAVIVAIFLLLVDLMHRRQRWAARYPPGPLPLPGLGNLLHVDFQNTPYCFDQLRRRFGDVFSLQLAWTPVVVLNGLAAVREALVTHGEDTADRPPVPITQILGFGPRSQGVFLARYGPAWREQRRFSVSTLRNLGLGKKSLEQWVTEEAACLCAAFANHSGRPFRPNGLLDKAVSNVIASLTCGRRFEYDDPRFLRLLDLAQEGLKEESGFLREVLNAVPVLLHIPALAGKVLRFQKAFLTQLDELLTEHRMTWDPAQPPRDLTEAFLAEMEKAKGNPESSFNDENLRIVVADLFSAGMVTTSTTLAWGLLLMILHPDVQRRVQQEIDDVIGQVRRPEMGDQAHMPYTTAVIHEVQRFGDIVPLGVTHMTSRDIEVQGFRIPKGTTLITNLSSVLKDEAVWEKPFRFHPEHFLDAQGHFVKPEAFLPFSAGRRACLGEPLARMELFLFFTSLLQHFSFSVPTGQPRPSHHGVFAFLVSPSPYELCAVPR

Cytochrome P450 1A2 = target: T1, Cytochrome P450 1A2 (Homo sapiens, UniProt P05177); test: Inhibition of CYP1A2 (unknown origin); format: ADME
T1 sequence (P05177 whole entry): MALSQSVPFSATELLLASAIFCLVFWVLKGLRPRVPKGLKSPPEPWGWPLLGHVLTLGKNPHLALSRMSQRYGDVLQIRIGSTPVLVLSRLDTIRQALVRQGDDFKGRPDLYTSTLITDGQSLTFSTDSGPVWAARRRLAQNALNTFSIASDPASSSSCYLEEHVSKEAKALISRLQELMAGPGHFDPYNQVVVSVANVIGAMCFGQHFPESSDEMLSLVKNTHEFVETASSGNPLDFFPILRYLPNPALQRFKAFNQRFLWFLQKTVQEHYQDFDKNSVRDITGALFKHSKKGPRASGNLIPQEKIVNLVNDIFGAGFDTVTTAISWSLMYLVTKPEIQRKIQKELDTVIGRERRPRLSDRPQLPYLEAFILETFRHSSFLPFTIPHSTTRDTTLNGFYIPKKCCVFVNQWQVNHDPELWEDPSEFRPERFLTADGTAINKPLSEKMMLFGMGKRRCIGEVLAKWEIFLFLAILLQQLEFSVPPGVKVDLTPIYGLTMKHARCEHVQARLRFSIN

Mus musculus [37] = test: Dose normalized Cmax in Plasmodium falciparum 3D70087/N9 infected NODscidIL2Rgamma-null mouse at 3 mg/kg, po by LC-MS/MS analysis; format: ADME, organism-based; design: dose 3 mg/kg, route oral; details: in vivo
[38] = Cmax in Plasmodium falciparum 3D70087/N9 infected NODscidIL2Rgamma-null mouse at 50 mg/kg, po by LC-MS/MS analysis; format: ADME, organism-based; design: dose 50 mg/kg, route oral; details: in vivo
[39] = Selectivity index, ratio of IC50 for human A549 cells to IC50 for Plasmodium falciparum; format: toxicity, cell-based; details: read-out: Ratio IC50
[40] = Clearance in mouse liver microsomes; format: ADME; details: read-out: CLH
[41] = Cmax in Plasmodium falciparum 3D70087/N9 infected NODscidIL2Rgamma-null mouse at 30 mg/kg, po by LC-MS/MS analysis; format: ADME, organism-based; design: dose 30 mg/kg, route oral; details: in vivo

CC(Oc1ccc2nc(N)n(CC(O)c3ccc(C(F)(F)F)cc3Cl)c2n1)C(F)(F)F (racemic)
AUC(0-t) at 23 h [1]: 10400 ng·h/mL
AUC (Mus musculus [2]): 2.31 µg·h/mL
AUC [3]: 1.66 µM·h
Cmax/dose (Mus musculus [4]): 0.022 µg/mL/mg/kg
solubility [5]: 5 µM (≈ 2.34 µg/mL)
ED90 (Plasmodium falciparum [6]): 28.6 mg/kg
IC50 (Cytochrome P450 3A4): 20.3 µM
logD [7]: > 4.5
AUC (Mus musculus [8]): 3.48 µg·h/mL
Tmax [9]: 2 h
hepatocyte CLint [10]: 43 µL/min/1e6 cells
Activity (Plasmodium berghei [11]): 94%
AUC(0-t) at 23 h [12]: 2700 ng·h/mL
AUC/dose (Mus musculus [13]): 0.16 µg·h/mL/mg/kg
Cmax [14]: 2040 nM
IC50 [15]: > 33.3 µM
Cmax [16]: 360 ng/mL
half-life [17]: 430 min
fraction unbound [18]: < 0.01
Tmax [19]: 4 h
IC50 (Cytochrome P450 2C19): 4.7 µM
AUC(0-t) at 23 h [20]: 6930 ng·h/mL
Cmax/dose (Mus musculus [21]): 0.035 µg/mL/mg/kg
AUC(0-t) at 23 h [22]: 480 ng·h/mL
clearance [23]: 22.6 mL/min/kg
AUC (Mus musculus [24]): 6.55 ug.hr/ml/day
AUC (Mus musculus [25]): 0.9 µg·h/mL
Tmax [26]: 6 h
IC50 (Plasmodium falciparum [27]): 5 nM
bioavailability [28]: 100%
Cmax/dose (Mus musculus [29]): 0.021 µg/mL/mg/kg
microsomal CLint [30]: 32 µL/min/mg
Cmax [31]: 600 ng/mL
IC50 (Cytochrome P450 2C9): 22.9 µM
Vd [32]: 2.49 L/kg
half-life [33]: 106 min
Survival (Plasmodium berghei [34]): 12 days
IC50 (Plasmodium falciparum [35]): 40 nM
Tmax [36]: 30 min
IC50 (Cytochrome P450 2D6): 28.3 µM
IC50 (Cytochrome P450 1A2): > 30 µM
Cmax/dose (Mus musculus [37]): 0.019 µg/mL/mg/kg
Cmax [38]: 1070 ng/mL
selectivity ratio [39]: > 325
microsomal CLint [40]: 19 µL/min/mg
Cmax [41]: 680 ng/mL
